Where a name gives a salt, the structure may show the parent alone.
What was measured:
[1] = Optimization of sensing conditions for H2S detection (biothiols with and without 2-FBBA)
Description: The samples containing HSA (100 μM) and each biothiol (H2S 100 μM, Cys 250 μM, Hcy 100 μM, and GSH 10 μM) with and without 2-formyl benzene boronic acid (2-FBBA) in SPB (pH 7.4, 20 mM) were incubated for 15 minutes at 25° C. KF-DNBS (25 μM, 10% DMSO) was added to the samples followed by the measurement of fluorescence spectra under excitation at 420 nm at 37° C.

HSA = HSA (Homo sapiens, UniProt P02768); experiment: Comparison of fluorescence change of KF and KF-DNBS with HSA; conditions: SPB pH 7.4, excitation 420 nm
Description: Stock solutions of KF and KF-DNBS were prepared in DMSO, and a stock solution of HSA was prepared in distilled water. Blanks, each containing only KF or KF-DNBS (25 μM, 10% DMSO), and samples, each containing KF or KF-DNBS (25 μM, 10% DMSO) with HSA (100 μM) in sodium phosphate buffer (SPB, pH 7.4, 20 mM), were prepared. Fluorescence spectra were then recorded using the fluorescence spectrophotometer under excitation at 420 nm.

[2] = Sensing behavior of KF-DNBS with HSA as selective H2S probe (H2S titration, LOD)
Description: The experiment was carried out in triplicate. The limit of detection (LOD) was calculated using 3σ/slope based on the titration experiment, in which σ was the standard deviation of the blank measurements and the slope value was obtained from a plot of the fluorescence intensity versus H2S concentration.

[3] = Selectivity of KF-DNBS toward H2S over other biological analytes
Description: Next, the selectivity of KF-DNBS with HSA toward H2S was investigated using various biologically relevant species, including biothiols (Cys, Hcy, and GSH), reactive sulfur species (RSS), and reactive oxygen species (ROS) (HSO4^−, SO4^2−, SO3^2−, S2O3^2−, SCN^−, H2O2, and ClO^−), and anions (CN^−, F^−, Br^−, NO3^−, NO2^−, HCO3^−, and CH3CO2^−).
A blank containing no analyte and a sample containing each analyte (H2S 100 μM, Cys 250 μM, Hcy 100 μM, GSH 10 μM, HSO4^− 100 μM, SO4^2− 100 μM, SO3^2− 100 μM, S2O3^2− 100 μM, SCN^− 100 μM, CN^− 100 μM, F^− 100 μM, Br^− 100 μM, NO3^− 100 μM, NO2^− 100 μM, HCO3^− 100 μM, CH3CO2^− 100 μM, H2O2 100 μM, ClO^− 100 μM) were prepared followed by the addition of HSA (100 μM) and 2-FBBA (2 mM) to SPB (pH 7.4, 20 mM). After incubation for 15 minutes at 25° C., KF-DNBS (25 μM, 10% DMSO) was added to each sample, and then fluorescence intensity at 500 nm was recorded using the fluorescence spectrophotometer under excitation at 420 nm at 37° C. The experiment was conducted in triplicate.

[4] = KF-DNBS 25 μM with HSA 100 μM, 2-FBBA 2 mM, SPB pH 7.4

Sequence of HSA (P02768 25-609): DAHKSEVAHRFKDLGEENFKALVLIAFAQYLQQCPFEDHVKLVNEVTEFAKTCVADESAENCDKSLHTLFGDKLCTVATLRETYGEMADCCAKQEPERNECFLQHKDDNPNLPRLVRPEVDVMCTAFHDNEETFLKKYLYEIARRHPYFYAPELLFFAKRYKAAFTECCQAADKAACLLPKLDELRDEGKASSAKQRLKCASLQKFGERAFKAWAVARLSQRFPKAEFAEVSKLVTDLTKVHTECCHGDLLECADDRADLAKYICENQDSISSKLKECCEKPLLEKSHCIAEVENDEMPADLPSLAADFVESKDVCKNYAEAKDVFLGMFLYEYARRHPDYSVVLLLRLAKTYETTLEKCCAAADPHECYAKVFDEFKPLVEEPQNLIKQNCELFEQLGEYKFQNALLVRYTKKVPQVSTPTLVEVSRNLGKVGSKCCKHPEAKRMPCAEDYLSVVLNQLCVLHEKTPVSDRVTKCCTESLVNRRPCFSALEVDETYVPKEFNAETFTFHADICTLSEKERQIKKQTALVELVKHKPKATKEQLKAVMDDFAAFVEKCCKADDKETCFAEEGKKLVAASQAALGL

Question: For “2-formyl benzene boronic acid [2-FBBA, reference compound]”, which “masking of the reactivity of Cys and Hcy upon KF-DNBS” value ([1]; 2-FBBA 2 mM, Cys 250 μM, Hcy 100 μM, HSA 100 μM) is on record?
Answer: The value was “completely block”.

Question: For `CCN(CC)c1ccc(-c2cc3c(s2)c(-c2ccc(OS(=O)(=O)c4ccc([N+](=O)[O-])cc4[N+](=O)[O-])cc2)cc(=O)n3C)cc1` (as salt: benzenesulfonate) [KF-DNBS, 4-(2-(4-(diethylamino)phenyl)-4-methyl-5-oxo-4,5-dihydrothieno[3,2-b]pyridin-7-yl)phenyl 2,4-dinitrobenzenesulfonate], which melting point is on record?
Answer: Its melting point is 96 to 98 °C.

Question: Which melting point does the source give for `CCN(CC)c1ccc(-c2cc3c(s2)c(-c2ccc(O)cc2)cc(=O)n3C)cc1` [KF, 2-(4-(diethylamino)phenyl)-7-(4-hydroxyphenyl)-4-methylthieno[3,2-b]pyridin-5(4H)-one] here?
Answer: Its melting point is 250 to 251 °C.

Question: What about the “fluorescence shift by addition of HSA” value (HSA; 25 μM, 10% DMSO, HSA 100 μM) of the same compound?
Answer: Its value is “shifted slightly from 550 to 500”.

Question: And the “HSA concentration range of linear fluorescence increase” value (HSA)?
Answer: Its value is 5 to 50 µM.

Question: For `CCN(CC)c1ccc(-c2cc3c(s2)c(-c2ccc(OS(=O)(=O)c4ccc([N+](=O)[O-])cc4[N+](=O)[O-])cc2)cc(=O)n3C)cc1` [KF-DNBS, 4-(2-(4-(diethylamino)phenyl)-4-methyl-5-oxo-4,5-dihydrothieno[3,2-b]pyridin-7-yl)phenyl 2,4-dinitrobenzenesulfonate], which “fluorescence change induced by Cys and Hcy” value ([1]; KF-DNBS 25 μM with HSA 100 μM, Cys 250 μM, Hcy 100 μM, without 2-FBBA) is on record?
Answer: The value was “noticeable fluorescence change”.

Question: What about the “fluorescence intensity at 500 nm on addition of H2S” value ([1]; KF-DNBS 25 μM with HSA 100 μM, H2S 100 μM, SPB pH 7.4, without 2-FBBA) of the same compound?
Answer: Its value is “increased significantly”.

Question: And the “selectivity to H2S over other biothiols” value ([1]; KF-DNBS with HSA in the presence of 2-FBBA (2 mM))?
Answer: Its value is “superior selectivity”.

Question: And the “H2S concentration range of linear fluorescence increase” value [2, 4]?
Answer: Its value is 5 to 100 µM.

Question: And the “detection limit (3σ/slope) for H2S” value [2, 4]?
Answer: Its value is 3.2 µM.

Question: And the “time for fluorescence intensity at 500 nm to reach the maximum value” ([2]; KF-DNBS 25 μM, HSA 100 μM, 2-FBBA 2 mM, SPB pH 7.4, H2S added, 37° C.)?
Answer: The value was at most 20 min.

Question: And the “H2S response in various buffer conditions” value ([2]; KF-DNBS with HSA, H2S 100 μM, pH 5 to pH 9, 20 mM)?
Answer: Its value is “worked well”.

Question: What about the “fluorescence enhancement at 500 nm with various analytes” value ([3]; KF-DNBS 25 μM, HSA 100 μM, 2-FBBA 2 mM, SPB pH 7.4, 18 analytes) of the same compound?
Answer: The value was “remarkable fluorescence enhancement was observed only for H2S”.

Question: And the “selectivity toward H2S” value ([3]; KF-DNBS with HSA and masking reagent 2-FBBA, biothiols, RSS, ROS, anions)?
Answer: Its value is “high selectivity”.

Question: What about the “fluorescence in the presence or absence of HSA” value (HSA; 25 μM, 10% DMSO, HSA 100 μM) of the same compound?
Answer: Its value is “weak fluorescence”.

From patent US20240158693A1, “Probe for Hydrogen Sulfide Detection, Method for Manufacturing Same, and Composition for Hydrogen Sulfide Detection, Comprising Same” (Korea Institute of Ocean Science &Technology, priority 2020, published 2024)
